# Test results reported in patent publication US8575197B2, “Pyrolinone derivative and pharmaceutical composition comprising the same” (Shionogi & Co., Ltd., priority 2008, dated 2013).
# Biological target: human P2X3 receptor (Homo sapiens (Human), UniProt P56373)
# Assay: P2X3 receptor inhibition, ATP-evoked Fluo-3 calcium fluorescence (FDSS 3000)
# Format: cell-based
# Settings: C6BU-1 cell transfected with human P2X3 receptor gene; ATP-evoked Fluo-3 fluorescence
# Procedure: Stably expressing cell line (C6BU-1 cell transfected with human P2X3 receptor gene (GenBank accession number Y07683)) was used. The cells were seeded in a 96-well microtiter plate at a concentration of 8000 cells/well and cultured in the medium (8.3% fetal bovine serum, 8.3% horse serum, 1% antibiotic and antifungal in DMEM) for one day at 37° C. under 5% carbon dioxide atmosphere. The medium was replaced with 4 μM Fluo-3-AM solution (pH7.5) containing 20 mM HEPES, 137 mM NaCl, 2.7 mM KCl, 0.9 mM MgCl2, 5.0 mM CaCl2, 5.6 mM D-glucose, 2.5 mM probenecid, 10% BSA, and 0.08% Pluronic F-127, and incubated at 37° C. under 5% dioxide carbon atmosphere for one hour. The plate was washed with washing buffer (20 mM HEPES, 137 mM NaCl, 2.7 mM KCl, 0.9 mM MgCl2, 5.0 mM CaCl2, 5.6 mM D-glucose, 2.5 mM probenecid, pH7.5), and each well was added with 40 μL of this buffer. The plate was placed in High-Throughput Screening System FDSS 3000 (Hamamatsu Photonics K.K.). Measurement of fluorescence intensity by FDSS 3000 was started, and 40 μL of DMSO solutions containing different concentrations of the test compound as prepared by dilution with dilution buffer (20 mM HEPES, 137 mM NaCl, 2.7 mM KCl, 0.9 mM MgCl2, 5.0 mM CaCl2, 5.6 mM D-glucose, 2.5 mM probenecid, 0.1% Pluronic F-127, pH7.5) were dispensed to each well through the built-in automatic dispenser. Five minutes after, 40 nM ATP solution (50 μL) prepared by dilution with the dilution buffer was dispensed through the built-in automatic dispenser, and the measurement of fluorescence intensity was continued for 3 min. For each well, the specific maximum fluorescence intensity was calculated as the ratio of the maximum fluorescence intensity after addition of the ATP solution to the fluorescence intensity at the starting of the measurement. […] FDSS software (Hamamatsu Photonics K.K.) was used for calculation of the specific maximum fluorescence intensity. IC50 was calculated using Microsoft™ Excel™ (Microsoft Corporation) and XLfit™ (ID Business Solutions Ltd.).
# human P2X3 receptor, sequence (P56373 whole entry): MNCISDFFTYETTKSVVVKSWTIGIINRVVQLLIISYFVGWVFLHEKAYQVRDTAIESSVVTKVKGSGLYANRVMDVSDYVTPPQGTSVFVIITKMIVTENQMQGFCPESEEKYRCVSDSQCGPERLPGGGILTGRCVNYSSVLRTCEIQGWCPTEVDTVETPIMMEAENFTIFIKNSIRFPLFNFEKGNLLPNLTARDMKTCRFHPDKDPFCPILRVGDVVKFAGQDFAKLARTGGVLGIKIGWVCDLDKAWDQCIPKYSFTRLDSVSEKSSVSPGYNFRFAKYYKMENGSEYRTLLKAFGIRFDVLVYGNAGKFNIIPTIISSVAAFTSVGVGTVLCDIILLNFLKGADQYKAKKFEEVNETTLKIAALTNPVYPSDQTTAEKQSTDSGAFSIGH
row,Compound,IC50
1,CC(C)c1n[nH]c2c1C(c1ccccc1OCC(C)(C)O)N(c1ccc(-c3ccsc3)cc1)C2=O (stereo not drawn) [II-184],12 nM
2,COc1ccccc1C1c2c(C(C)(C)C)n[nH]c2C(=O)N1c1ccc(C(C)=O)cc1 (stereo not drawn) [II-155],322 nM
3,CC(C)c1n[nH]c2c1C(c1ccccc1C(=O)N(C)C)N(c1ccc(-c3ccsc3)cc1)C2=O (stereo not drawn) [II-093],2 nM
4,COc1ccccc1C1c2c(C(C)(C)C)n[nH]c2C(=O)N1c1ccc(-c2ccccc2)cc1 (stereo not drawn) [II-208],112 nM
5,CN(C)C(=O)c1ccccc1C1C(C(=O)C2CCCC2)=C(O)C(=O)N1c1ccc(-c2ccsc2)cc1 (stereo not drawn) [Compound I-514],138 nM
6,Cc1ccc(-c2ccc(N3C(=O)C(O)=C(C(=O)C(C)C)C3c3ccccc3OC(F)(F)F)cc2)s1 (stereo not drawn) [Compound I-334],78 nM
7,COCOc1ccccc1C1C(C(=O)C(C)C)=C(O)C(=O)N1c1ccc(-c2ccc(C)s2)cc1 (stereo not drawn) [Compound I-264],14 nM
8,CCOCOc1ccccc1C1C(C(=O)C(C)C)=C(O)C(=O)N1c1ccc(-c2ccon2)cc1 (stereo not drawn) [Compound I-543],240 nM
9,COCCOc1ncccc1C1c2c(C(C)(C)C)n[nH]c2C(=O)N1c1ccc(SC)cc1 (stereo not drawn) [II-034],46 nM
10,COCc1ccccc1C1C(C(=O)C(C)(C)C)=C(O)C(=O)N1c1ccc(-c2cc(C)no2)cc1 (stereo not drawn) [Compound I-050],642 nM
11,COCCOc1ccccc1[C@@H]1C(C(=O)C(C)C)=C(O)C(=O)N1c1ccc(-c2ccc(C)s2)cc1 [Compound I-465],7 nM
12,COCCOc1ccccc1C1c2c(C(C)(C)C)n[nH]c2C(=O)N1c1ccc(-c2nc(C)no2)cc1 (stereo not drawn) [II-024],62 nM
13,CSc1ccc(N2C(=O)C(O)=C(C(=O)C(C)C)C2c2ccccc2OC(C)C)cc1 (stereo not drawn) [Compound I-474],71 nM
14,CC(C)c1n[nH]c2c1C(c1ccccc1CN(C)C)N(c1ccc(-c3ccsc3)cc1)C2=O (stereo not drawn) [II-084],18 nM
15,CSc1ccccc1C1C(C(=O)C(C)(C)C)=C(O)C(=O)N1c1ccc(-c2ccon2)cc1 (stereo not drawn) [Compound I-057],159 nM
16,COc1ncccc1C1C(C(=O)C(C)(C)C)=C(O)C(=O)N1c1ccc(-c2ccco2)cc1 (stereo not drawn) [Compound I-117],383 nM
17,Cc1cc(-c2ccc(N3C(=O)C(O)=C(C(=O)C(C)C)C3c3ccccc3S(C)(=O)=O)cc2)cs1 (stereo not drawn) [Compound I-507],101 nM
18,COCCOc1ccccc1C1C(C(=O)CC(C)C)=C(O)C(=O)N1c1ccc(C2=NCCS2)cc1 (stereo not drawn) [Compound I-410],151 nM
19,COc1ccccc1C1c2c(C(C)(CO)CO)n[nH]c2C(=O)N1c1ccc(-c2ccon2)cc1 (stereo not drawn) [II-258],304 nM
20,COCCOc1ccccc1C1C(C(=O)C(C)C)=C(O)C(=O)N1c1ccc(-c2csc(C)c2)cc1 (stereo not drawn) [Compound I-261],19 nM
21,C[S+]([O-])CCOc1ccccc1C1c2c(C(C)(C)C)n[nH]c2C(=O)N1c1ccc(-c2ccsc2)cc1 (stereo not drawn) [II-076],12 nM

row,Compound,IC50
1,Cc1ccc(-c2ccc(N3C(=O)C(O)=C(C(=O)CC(C)C)C3c3ccccc3OC(F)(F)F)cc2)o1 (stereo not drawn) [Compound I-362],40 nM
2,Cc1ccc(-c2ccc(N3C(=O)C(O)=C(C(=O)C(C)C)C3c3ccccc3OC(F)F)cc2)s1 (stereo not drawn) [Compound I-333],58 nM
3,COCc1ncccc1C1C(C(=O)CC(C)C)=C(O)C(=O)N1c1ccc(-c2ccsc2)cc1 (stereo not drawn) [Compound I-324],109 nM
4,CC(C)C(=O)C1=C(O)C(=O)N(c2ccc(-c3ccon3)cc2)C1c1cccnc1OCCO (stereo not drawn) [Compound I-179],659 nM
5,COc1ccccc1C1C(C(=O)C(C)(C)C)=C(O)C(=O)N1c1ccc(-c2cccs2)cc1 (stereo not drawn) [Compound I-079],23 nM
6,Cc1nc(-c2ccc(N3C(=O)C(O)=C(C(=O)C(C)C)C3c3ccccc3OCC3OCCO3)cc2)no1 (stereo not drawn) [Compound I-501],52 nM
7,COc1ccccc1C1c2c(C(C)(C)C)n[nH]c2C(=O)N1c1ccc(-c2ccc(C)s2)cc1 (stereo not drawn) [II-275],27 nM
8,COCCOc1ccccc1C1C(C(=O)CC(C)C)=C(O)C(=O)N1c1ccc(-c2ccon2)cc1 (stereo not drawn) [Compound I-309],182 nM
9,COc1ccc(CC(=O)C2=C(O)C(=O)N(c3ccc(-c4noc(C)n4)cc3)C2C2CCCCC2)cc1 (stereo not drawn) [Compound I-331],722 nM
10,COCCOc1ncccc1C1c2c(C(C)(C)C)n[nH]c2C(=O)N1c1ccc(-c2cccs2)cc1 (stereo not drawn) [II-035],6 nM
11,CC(C)(C)C(=O)C1=C(O)C(=O)N(c2ccc(-c3cccs3)cc2)C1c1ccccc1OCC(=O)O (stereo not drawn) [Compound I-119],98 nM
12,CC(C)c1n[nH]c2c1C(c1ccccc1C(=O)O)N(c1ccc(-c3ccsc3)cc1)C2=O (stereo not drawn) [II-089],107 nM
13,O=C(C1=C(O)C(=O)N(c2ccc(-c3ccon3)cc2)C1C1CCCCC1)c1ccc(Br)cc1 (stereo not drawn) [Compound I-016],79 nM
14,CN(C)CCOc1ccccc1C1C(C(=O)C(C)(C)C)=C(O)C(=O)N1c1ccc(-c2ccon2)cc1 (stereo not drawn) [Compound I-137],615 nM
15,COc1ccccc1C1c2c(C(C)(C)C)n[nH]c2C(=O)N1c1ccc(SC(F)(F)F)cc1 (stereo not drawn) [II-004],378 nM
16,COCc1ncccc1C1C(C(=O)C(C)(C)C)=C(O)C(=O)N1c1ccc(-c2ccsc2)cc1 (stereo not drawn) [Compound I-162],41 nM
17,CC(C)(C)c1n[nH]c2c1C(c1ccccc1OCC(=O)O)N(c1ccc(-c3cccs3)cc1)C2=O (stereo not drawn) [II-022],4 nM
18,CC(C)c1n[nH]c2c1C(c1ccccc1OCC[S+](C)[O-])N(c1ccc(-c3ccsc3)cc1)C2=O (stereo not drawn) [II-080],11 nM
19,CC(C)(C)C(=O)C1=C(O)C(=O)N(c2ccc(-c3ccco3)cc2)C1c1ccccc1OCCO (stereo not drawn) [Compound I-085],48 nM
20,CNC(=O)COc1ncccc1C1C(C(=O)C(C)C)=C(O)C(=O)N1c1ccc(-c2ccsc2)cc1 (stereo not drawn) [Compound I-199],19 nM
21,CC(C)Oc1ccccc1C1C(C(=O)C(C)(C)C)=C(O)C(=O)N1c1ccc(-c2ccon2)cc1 (stereo not drawn) [Compound I-105],97 nM

row,Compound,IC50
1,CNC(=O)COc1ccccc1C1c2c(C(C)(C)C)n[nH]c2C(=O)N1c1ccc(-c2ccsc2)cc1 (stereo not drawn) [II-167],5 nM
2,Cc1nc(-c2ccc(N3C(=O)C(O)=C(C(=O)C(C)C)C3c3ccccc3CCC(=O)NC(C)C)cc2)no1 (stereo not drawn) [Compound I-594],715 nM
3,COc1ccc(-c2n[nH]c3c2C(c2ccccc2OC)N(CCCc2ccco2)C3=O)cc1 (stereo not drawn) [II-231],344 nM
4,COc1ncccc1C1c2c(C(C)(C)C)n[nH]c2C(=O)N1c1ccc(-c2ccco2)nc1 (stereo not drawn) [II-271],153 nM
5,CC(C)Oc1ccccc1C1c2c(C(C)(C)C)n[nH]c2C(=O)N1c1ccc(-c2ccon2)cc1 (stereo not drawn) [II-019],21 nM
6,COc1ccc(C(=O)C2=C(O)C(=O)N(c3ccc4[nH]ccc4c3)C2C2CCCCC2)cc1 (stereo not drawn) [Compound I-012],340 nM
7,COCCOc1ccccc1C1C(C(=O)CC(C)C)=C(O)C(=O)N1c1ccc(-c2csc(C)n2)cc1 (stereo not drawn) [Compound I-427],331 nM
8,COc1ccccc1C1c2c(C(C)(C)C)n[nH]c2C(=O)N1c1ccc(N(C)C)cc1 (stereo not drawn) [II-202],76 nM
9,Cc1ccc(-c2ccc(N3C(=O)C(O)=C(C(=O)C(C)C)C3c3ccccc3CCC(=O)N(C)C)cc2)o1 (stereo not drawn) [Compound I-537],83 nM
10,Cc1ccc(-c2ccc(N3C(=O)C(O)=C(C(=O)CC(C)C)C3c3cccnc3C(=O)NC(C)C)cc2)s1 (stereo not drawn) [Compound I-578],386 nM
11,COc1cc(F)ccc1C1C(C(=O)C(C)(C)C)=C(O)C(=O)N1c1ccc(-c2ccon2)cc1 (stereo not drawn) [Compound I-011],270 nM
12,COCCOc1cc(F)ccc1C1C(C(=O)CC(C)C)=C(O)C(=O)N1c1ccc(-c2ccoc2)cc1 (stereo not drawn) [Compound I-368],16 nM
13,COc1ccc(C(=O)C2=C(O)C(=O)N(c3ccc(-c4ccoc4)cc3)C2C2CCCCC2)cc1 (stereo not drawn) [Compound I-039],12 nM
14,Cc1ccc(-c2ccc(N3C(=O)C(O)=C(C(=O)C(C)C)C3c3ccccc3OCCO)cc2)s1 (stereo not drawn) [Compound I-258],24 nM
15,COc1ncccc1C1c2c(C(C)(C)CO)n[nH]c2C(=O)N1c1ccc(-c2ccsc2)cc1 (stereo not drawn) [II-109],21 nM
16,COCCOc1ccccc1C1C(C(=O)C(C)C)=C(O)C(=O)N1c1ccc(-c2cccs2)cc1 (stereo not drawn) [Compound I-226],12 nM
17,COc1ccccc1C1C(C(=O)C(C)C)=C(O)C(=O)N1c1ccc2sccc2c1 (stereo not drawn) [Compound I-269],347 nM
18,COc1ccccc1C1c2c(C(C)(C)CO)n[nH]c2C(=O)N1c1ccc(-c2ccoc2)cc1 (stereo not drawn) [II-219],14 nM
19,Cc1nc(-c2ccc(N3C(=O)C(O)=C(C(=O)C4CCCC4)C3c3ccccc3OCC(C)C)cc2)no1 (stereo not drawn) [Compound I-519],33 nM
20,COc1ccccc1C1C(C(=O)C(C)C)=C(O)C(=O)N1c1ccc(-c2ccsc2)c(F)c1 (stereo not drawn) [Compound I-235],35 nM
21,C=C(C)c1n[nH]c2c1C(c1ccccc1OC)N(c1ccc(-c3ccon3)cc1)C2=O (stereo not drawn) [II-149],377 nM
